PubChem BioAssay AID686923 (Vanderbilt Specialized Chemistry Center, 2013)
Active and inactive are the calls of the source. The rule behind the calls is not given here.

Legend:
[1] = molecular target: In vitro counter assay against key known off-targets for selectedBMP Compounds; experiment: PubChem AID 686923; settings: in vitro kinase counter-screen panel
[2] = molecular target: Vascular endothelial growth factor receptor 2 (Homo sapiens) (UniProt P35968); experiment: PubChem AID 686923; settings: in vitro kinase counter-screen panel
Chain of Vascular endothelial growth factor receptor 2 (Homo sapiens) (P35968 whole entry, looked up): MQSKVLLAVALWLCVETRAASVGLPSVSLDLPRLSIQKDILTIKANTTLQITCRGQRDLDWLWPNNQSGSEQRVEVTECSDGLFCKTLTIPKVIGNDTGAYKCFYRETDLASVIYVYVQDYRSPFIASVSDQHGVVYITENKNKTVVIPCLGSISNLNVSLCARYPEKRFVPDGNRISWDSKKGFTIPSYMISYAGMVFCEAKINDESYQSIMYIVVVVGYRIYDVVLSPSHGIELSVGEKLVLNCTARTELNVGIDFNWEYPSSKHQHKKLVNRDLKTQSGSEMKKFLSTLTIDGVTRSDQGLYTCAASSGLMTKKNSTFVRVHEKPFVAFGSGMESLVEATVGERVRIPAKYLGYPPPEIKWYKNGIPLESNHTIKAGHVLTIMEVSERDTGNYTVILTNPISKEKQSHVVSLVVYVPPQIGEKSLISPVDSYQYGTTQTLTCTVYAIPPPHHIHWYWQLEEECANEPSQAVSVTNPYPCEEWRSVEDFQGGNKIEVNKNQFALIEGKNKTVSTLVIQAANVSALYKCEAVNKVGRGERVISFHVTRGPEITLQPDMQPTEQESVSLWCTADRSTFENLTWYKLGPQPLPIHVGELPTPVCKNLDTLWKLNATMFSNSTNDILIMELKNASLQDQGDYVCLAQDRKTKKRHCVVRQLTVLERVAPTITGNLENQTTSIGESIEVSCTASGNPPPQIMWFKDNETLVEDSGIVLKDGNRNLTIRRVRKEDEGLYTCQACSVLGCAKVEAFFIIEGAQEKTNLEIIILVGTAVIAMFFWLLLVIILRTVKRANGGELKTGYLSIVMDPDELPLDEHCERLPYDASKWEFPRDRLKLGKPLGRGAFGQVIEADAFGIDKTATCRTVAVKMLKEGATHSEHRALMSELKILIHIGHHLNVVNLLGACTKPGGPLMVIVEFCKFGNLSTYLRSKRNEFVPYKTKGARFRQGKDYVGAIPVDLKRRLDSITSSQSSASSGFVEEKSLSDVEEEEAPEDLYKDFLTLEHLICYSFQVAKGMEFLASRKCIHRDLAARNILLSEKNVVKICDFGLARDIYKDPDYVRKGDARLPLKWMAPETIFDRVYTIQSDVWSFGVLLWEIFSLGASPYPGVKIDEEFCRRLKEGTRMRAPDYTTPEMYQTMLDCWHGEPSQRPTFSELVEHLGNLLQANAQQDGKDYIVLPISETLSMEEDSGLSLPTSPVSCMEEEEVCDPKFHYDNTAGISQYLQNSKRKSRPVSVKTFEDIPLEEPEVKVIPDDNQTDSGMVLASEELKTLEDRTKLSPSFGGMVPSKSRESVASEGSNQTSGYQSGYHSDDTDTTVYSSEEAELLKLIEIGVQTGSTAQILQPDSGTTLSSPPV

SMILES | IC50 [1] | IC50 [2]
c1cc(-c2cnn3cc(-c4ccc(N5CCNCC5)cc4)cnc23)c2cccnc2c1 | 253 µM | 
COc1ccc(-c2cnc3c(-c4cccc5cccnc45)cnn3c2)cc1 | inactive | inactive
COc1ccc(-c2cnc3c(-c4cccc5ncccc45)cnn3c2)cc1 |  | inactive
